# Laboratory results taken from article PMC9356065, “Novel psoralen derivatives as anti-breast cancer agents and their light-activated cytotoxicity against HER2 positive breast cancer cells” (Scientific Reports, 2022).
# Where a name gives a salt, the structure may show the parent alone. Read-outs that look alike come from different tables or passages of the source.
# Columns and labels:
# MDA-MB-231 [1] = assay: Dark and light-activated (UVA) cytotoxicity, MTT; format: cell-based; conditions: Homo sapiens, dark, HER2− breast cancer
# [2] = tested on: differentiated HL-60 cells; assay: Inhibition of TPA-induced superoxide anion radical generation (HL-60 Antioxidant); format: cell-based, human; conditions: screening concentration 100 µM; for inhibition at 100 µM: Homo sapiens, HL-60, read-out: HL-60 Antiox. %Inh
# Description: Inhibition of 12-O-tetradecanoylphorbol-13-acetate (TPA)-induced superoxide anion radical generation in differentiated HL-60 cells (HL-60 Antioxidant) TPA-induced superoxide anion radical formation was detected in differentiated HL-60 cells by photometric determination of cytochrome c reduction as previously described by Gerhäuser et al., 2003.ii Superoxide dismutase (SOD;15U) was a positive control. […]
# MDA-MB-231 [3] = assay: Dark and light-activated (UVA) cytotoxicity, MTT; format: cell-based; conditions: Homo sapiens, MDA-MB-231, light or radiation study; irradiation with UVA (2.0 J cm^−2); HER2− breast cancer
# Protocol: (§1) The selected compounds were screened for their IC50 values against both HER2+ breast cancer (SK-BR-3), and HER2− breast cancer (MDA-MB-231) in both dark and light-activated conditions (Table 2). Additionally, a negative control study was also performed with SK-BR-3 and MDA-MB-231 cells in the absence of tested compound under UVA irradiation (See Fig S7., Supporting Information).
# (§2) SK-BR-3 and MDA-MB-231 cells were seeded into 96-well cell culture plates at 5 × 10^3 cells/well and incubated for 24 h at 37 °C under 5% CO2. After that, the cells were treated with 50 μM of psoralen derivatives in DMEM with 10% FBS and the cells were continued incubation for another 4 h. After incubation, the cells were washed with PBS (3 times) and then irradiated by a 365 nm lamp with the light intensity of 2.0 J cm^−2 for 12.5 min before re-incubation for another 72 h. After incubation, the cell was treated with methylthiazolyldiphenyl-tetrazolium bromide (MTT reagent 200 μL, 0.5 mg mL^−1, Sigma-Aldrich) for 2 h. After reagent removal, DMSO was added to dissolve the formazan product and the cell viabilities were determined through UV–Vis absorption of the resulting formazan at wavelength 560 nm using a microplate reader (BMG Labtech/SPECTROstar Nano). The cell morphology images were captured by using a light microscope (Microscope Nikon, inverted digital) at 20X magnification prior to treating with MTT reagent.
# MDA-MB-231 [4] = assay: MTT cytotoxicity, 48 h, without UVA; format: cell-based; conditions: Homo sapiens, MDA-MB-231, light or radiation study; for inhibition at 50 µg/mL: I = %inhibition lower than 50%, read-out: Cytotoxic activity MDA-MB-231 %Inhibition; for IC50: hormone-independent breast cancer, read-out: Cytotoxic activity MDA-MB-231 IC50
# Protocol: (§3) MDA-MB-231 (triple-negative breast cancer) was obtained from M.D. Anderson Cancer Center, Houston, TX, USA). T47-D (hormone-dependent breast carcinoma), SK-BR-3 (human HER2+ breast cancer), and MRC-5 (normal embryonic lung fibroblast) were obtained from the American Type Culture Collection (ATCC, Manassas, VA, USA).
# (§4) The cytotoxic effect of tested compounds was evaluated in two breast cancer cell lines, MDA-MB-231 and T47-D. Number of survival cells after exposure to tested compounds for 48 h was determined by MTT assay, as previously described.
# aromatase (CYP19) = biological target: T1, aromatase (CYP19) (Homo sapiens, UniProt P11511); assay: Inhibition of aromatase (AIA); format: biochemical; conditions: at 12.5 µM; I = %inhibition lower than 50%; read-out: Aromatase inhibitory activity %Inhibition
# T1 sequence (P11511 1-503): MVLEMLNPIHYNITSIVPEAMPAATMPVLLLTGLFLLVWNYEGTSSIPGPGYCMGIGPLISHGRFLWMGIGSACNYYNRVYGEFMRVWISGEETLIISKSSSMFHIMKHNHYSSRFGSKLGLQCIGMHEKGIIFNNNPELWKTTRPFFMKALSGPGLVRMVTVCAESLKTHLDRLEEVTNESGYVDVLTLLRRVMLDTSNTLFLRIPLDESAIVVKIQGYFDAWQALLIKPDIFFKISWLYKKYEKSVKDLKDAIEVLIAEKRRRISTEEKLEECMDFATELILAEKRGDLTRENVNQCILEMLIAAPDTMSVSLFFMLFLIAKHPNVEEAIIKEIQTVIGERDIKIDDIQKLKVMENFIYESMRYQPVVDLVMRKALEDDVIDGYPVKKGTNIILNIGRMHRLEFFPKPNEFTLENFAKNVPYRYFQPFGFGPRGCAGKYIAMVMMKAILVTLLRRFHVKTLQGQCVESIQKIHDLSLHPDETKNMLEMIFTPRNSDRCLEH
# Protocol: Estrogens are the critical risk factor for breast cancer initiation and progression and the aromatase enzyme involves in the final step conversion of androgens to estrogens[21],[22]. […] In this study, the synthesized psoralen derivatives were also tested for aromatase inhibitory activity (AIA) which is considered to be one of chemopreventive mechanisms for hormone dependent breast cancer.
# Inhibition of the aromatase was performed using the method designed by Stresser et al.[39].
# SK-BR-3 cells = assay: Cell morphology by light microscope; format: cell-based, human; conditions: 48 h; for morphology of SK-BR-3 cells under light activation: UVA 2.0 J cm^−2
# Protocol: as §2, with “After incubation, the cells were washed with PBS (3 times) and then irradiated by a 365 nm lamp with the light intensity of 2.0 J cm^−2 for 12.5 min before re-incubation for another 72 h.” left out
# [5] = Scavenging of diphenyl-picryl-hydrazyl radicals (DPPH); conditions: for DPPH %Inh: screening concentration 250 µM; for IC50: read-out: DPPH IC50
# Description: 1. Chemoprevention activity
# SK-BR-3 [6] = assay: Dark and light-activated (UVA) cytotoxicity, MTT; format: cell-based; conditions: Homo sapiens, dark, HER2+ breast cancer
# T47-D = assay: MTT cytotoxicity, 48 h, without UVA; format: cell-based, human; conditions: for inhibition at 50 µg/mL / IC50: Homo sapiens, T47D, light or radiation study, 48 h, without UVA; for inhibition at 50 µg/mL: I = %inhibition lower than 50%, read-out: Cytotoxic activity T47-D %Inhibition; for IC50: hormone-dependent breast cancer, read-out: Cytotoxic activity T47-D IC50; for Selectivity Index (SI): SI = IC50 for MRC-5/IC50 for T47-D
# Protocol: (§5) Additionally, the cytotoxicity towards normal cells, human embryonal lung fibroblast cell MRC-5 was also assessed.
# as §3, §4
# SK-BR-3 [7] = assay: Dark and light-activated (UVA) cytotoxicity, MTT; format: cell-based, human; conditions: Homo sapiens, SK-BR-3, light or radiation study; irradiation with UVA (2.0 J cm^−2); HER2+ breast cancer
# Protocol: as §1, §2
# xanthine oxidase = xanthine oxidase (Homo sapiens, UniProt P47989); assay: Inhibition of xanthine oxidase (IXO); format: biochemical; conditions: for inhibition at 500 µM: screening concentration 500 µM, read-out: IXO %Inh
# Protocol: 1. […]
# Inhibition of xanthine oxidase (IXO)
# Xanthine oxidase activity was determined by quantifying the amount of uric acid produced
# from xanthine. […]
# [8] = Inhibition of superoxide radical formation by xanthine/xanthine oxidase (XXO); format: biochemical; conditions: for IC50: read-out: XXO IC50; for XXO %Inh: screening concentration 500 µM
# Description: 1. […]
# MDA-MB-231 [9] = tested on: MDA-MB-231; parameters: method as in doi:10.1007/s00044-014-1312-6; conditions: previously reported; cited from earlier work
# MCF-7 = conditions: Fig. 1d; cited from earlier work
# [10] = MTT cytotoxicity towards normal cells, 48 h; format: cell-based; conditions: MRC-5 cells (normal embryonic lung fibroblasts), human embryonal lung fibroblast cell, without UVA, read-out: Cytotoxic activity MRC-5 IC50
# Protocol: as §5, §3, §4
# [11] = tested on: ERα activity in MCF-7 cells; parameters: method as in PMID 31673107; conditions: read-out: IC50 antagonism of ERα activity in MCF-7 cells; cited from earlier work
# Sequence of xanthine oxidase (P47989 whole entry, species assumed): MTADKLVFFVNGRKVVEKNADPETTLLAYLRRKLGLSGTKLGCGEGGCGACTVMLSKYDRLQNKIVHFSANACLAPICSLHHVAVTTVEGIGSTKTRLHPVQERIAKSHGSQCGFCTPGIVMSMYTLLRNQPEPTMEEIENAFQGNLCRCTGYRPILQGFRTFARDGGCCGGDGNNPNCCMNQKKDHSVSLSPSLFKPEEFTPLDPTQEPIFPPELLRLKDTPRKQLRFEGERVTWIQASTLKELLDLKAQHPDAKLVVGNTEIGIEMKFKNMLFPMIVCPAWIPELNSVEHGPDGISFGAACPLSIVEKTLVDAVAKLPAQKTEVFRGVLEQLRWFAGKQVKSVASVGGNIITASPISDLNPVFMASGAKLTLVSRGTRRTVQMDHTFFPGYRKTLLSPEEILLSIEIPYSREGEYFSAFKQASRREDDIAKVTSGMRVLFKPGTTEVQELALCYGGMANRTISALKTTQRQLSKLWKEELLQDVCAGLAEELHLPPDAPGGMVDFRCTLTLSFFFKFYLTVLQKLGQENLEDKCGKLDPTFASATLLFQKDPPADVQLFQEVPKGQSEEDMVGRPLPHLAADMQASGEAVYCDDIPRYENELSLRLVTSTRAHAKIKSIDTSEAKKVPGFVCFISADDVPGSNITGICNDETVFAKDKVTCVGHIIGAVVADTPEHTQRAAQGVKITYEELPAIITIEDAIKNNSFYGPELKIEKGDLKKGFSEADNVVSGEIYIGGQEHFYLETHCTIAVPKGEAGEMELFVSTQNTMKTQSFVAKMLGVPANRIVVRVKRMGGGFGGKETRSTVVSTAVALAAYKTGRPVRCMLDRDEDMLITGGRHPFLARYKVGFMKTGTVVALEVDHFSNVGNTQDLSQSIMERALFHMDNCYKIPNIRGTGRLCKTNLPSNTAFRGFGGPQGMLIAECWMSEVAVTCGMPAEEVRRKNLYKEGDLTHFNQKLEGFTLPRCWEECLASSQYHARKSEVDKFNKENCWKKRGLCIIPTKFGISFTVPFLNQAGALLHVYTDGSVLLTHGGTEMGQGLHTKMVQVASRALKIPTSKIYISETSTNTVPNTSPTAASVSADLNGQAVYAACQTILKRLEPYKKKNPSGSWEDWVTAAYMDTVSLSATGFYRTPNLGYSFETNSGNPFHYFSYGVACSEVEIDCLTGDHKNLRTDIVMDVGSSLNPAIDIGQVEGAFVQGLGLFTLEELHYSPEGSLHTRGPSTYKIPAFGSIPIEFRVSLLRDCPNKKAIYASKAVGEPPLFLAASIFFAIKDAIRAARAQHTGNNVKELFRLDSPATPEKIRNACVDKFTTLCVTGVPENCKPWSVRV
smiles,measurement,setting,value
"COc1c2occc2c(NC(=O)c2ccco2)c2ccc(=O)oc12 [3g, N-(9-Methoxy-7-oxo-7H-furo[3,2-g]chromen-4-yl)furan-2-carboxamide]",IC50,MDA-MB-231 [1],> 100 µM
same,inhibition at 100 µM,[2],17%
same,IC50,MDA-MB-231 [3],> 100 µM
same,inhibition at 50 µg/mL,MDA-MB-231 [4],0.5%
same,melting point,,227 to 228 °C
same,inhibition at 12.5 µM,aromatase (CYP19),16%
same,morphology of SK-BR-3 cells under light activation,SK-BR-3 cells,significantly changed
same,morphology of SK-BR-3 cells under dark condition,SK-BR-3 cells,maintained morphology of intact cells
same,DPPH %Inh,[5],3%
same,IC50,SK-BR-3 [6],> 100 µM
same,inhibition at 50 µg/mL,T47-D,24%
same,IC50,SK-BR-3 [7],2.71 ± 0.84 µM
"CCC(=O)Nc1c2ccoc2c(OC)c2oc(=O)ccc12 [3j, N-(9-Methoxy-7-oxo-7H-furo[3,2-g]chromen-4-yl)propionamide]",IC50,MDA-MB-231 [1],> 100 µM
same,inhibition at 100 µM,[2],11%
same,IC50,MDA-MB-231 [3],> 100 µM
same,inhibition at 50 µg/mL,MDA-MB-231 [4],3%
same,melting point,,233 to 234 °C
same,inhibition at 500 µM,xanthine oxidase,29%
same,inhibition at 12.5 µM,aromatase (CYP19),8%
same,morphology of SK-BR-3 cells under light activation,SK-BR-3 cells,significantly changed
same,morphology of SK-BR-3 cells under dark condition,SK-BR-3 cells,maintained morphology of intact cells
same,DPPH %Inh,[5],2%
same,IC50,SK-BR-3 [6],> 100 µM
same,IC50,[8],187 µM
same,inhibition at 50 µg/mL,T47-D,22%
same,IC50,SK-BR-3 [7],3.05 ± 1.02 µM
"COc1c2occc2c(NC(=O)C(C)C)c2ccc(=O)oc12 [3k, N-(9-Methoxy-7-oxo-7H-furo[3,2-g]chromen-4-yl)isobutyramide]",IC50,MDA-MB-231 [1],> 100 µM
same,inhibition at 100 µM,[2],11%
same,IC50,MDA-MB-231 [3],> 100 µM
same,inhibition at 50 µg/mL,MDA-MB-231 [4],4%
same,melting point,,234 to 235 °C
same,inhibition at 500 µM,xanthine oxidase,17%
same,inhibition at 12.5 µM,aromatase (CYP19),8%
same,DPPH %Inh,[5],2%
same,IC50,SK-BR-3 [6],> 100 µM
same,IC50,[8],394 µM
same,inhibition at 50 µg/mL,T47-D,36%
same,IC50,SK-BR-3 [7],66.1 ± 5.21 µM
"COc1c2occc2c(NC(=O)C23CC4CC(CC(C4)C2)C3)c2ccc(=O)oc12 [3n, (3r,5r,7r)-N-(9-Methoxy-7-oxo-7H-furo[3,2-g]chromen-4-yl)adamantane-1-carboxamide]",IC50,MDA-MB-231 [9],2 µM
same,inhibition at 100 µM,[2],8%
same,IC50,MDA-MB-231 [4],> 100 µM
same,melting point,,240 to 242 °C
same,inhibition at 12.5 µM,aromatase (CYP19),5%
same,DPPH %Inh,[5],1%
same,IC50,MCF-7,0.48 µM
same,XXO %Inh,[8],47%
same,IC50,T47-D,43.06 ± 0.09 µM
same,Selectivity Index (SI),T47-D,> 3.0
"COc1c2occc2c(NCc2ccccc2)c2ccc(=O)oc12 [4a, 4-(Benzylamino)-9-methoxy-7H-furo[3,2-g]chromen-7-one]",inhibition at 100 µM,[2],7%
same,IC50,MDA-MB-231 [4],> 100 µM
same,melting point,,168 to 169 °C
same,IC50,xanthine oxidase,27.4 µM
same,inhibition at 12.5 µM,aromatase (CYP19),46%
same,IC50,[5],145 µM
same,XXO %Inh,[8],34%
same,IC50,T47-D,31.1 ± 1.54 µM
same,Selectivity Index (SI),T47-D,> 5.0
"COc1cccc2c1C(=O)c1c(O)c3c(c(O)c1C2=O)C[C@@](O)(C(=O)CO)C[C@@H]3O[C@H]1C[C@H](N)[C@H](O)[C@H](C)O1 [Doxorubicin, reference compound]",IC50,MDA-MB-231 [4],3.16 ± 0.26 µM
same,IC50 at 48 h,[10],3.07 ± 0.22 µM
same,IC50,T47-D,1.46 ± 2.79 µM
same,Selectivity Index (SI),T47-D,2.1
"CC/C(=C(\c1ccccc1)c1ccc(OCCN(C)C)cc1)c1ccccc1 [Tamoxifen citrate, reference compound]",IC50,MDA-MB-231 [4],66 ± 2.48 µM
same,IC50 at 48 h,[10],67.6 ± 10.5 µM
same,IC50,T47-D,20.9 ± 1.31 µM
COc1c2occc2c(NC(=O)c2cccc3ccccc23)c2ccc(=O)oc12 [VIb],IC50,MDA-MB-231 [9],100 µM
same,IC50 (MCF-7),MCF-7,Inactive
C=CCNc1c2ccoc2c(OC)c2oc(=O)ccc12 [Va],IC50,MDA-MB-231 [9],5 µM
same,IC50,MCF-7,3.87 µM
COc1c2occc2c(NCc2ccccc2)c2ccc(=O)oc12 [Vb],IC50,MDA-MB-231 [9],3 µM
same,IC50,MCF-7,1.09 µM
O=c1ccc2ccc3occc3c2o1 [angelicin],IC50,[11],11 µM
"COc1c2occc2c(NS(=O)(=O)c2ccccc2)c2ccc(=O)oc12 [compound 5, N-(9-Methoxy-7-oxo-7H-furo[3,2-g]chromen-4-yl)benzenesulfonamide]",inhibition at 100 µM,[2],32%
same,inhibition at 50 µg/mL,MDA-MB-231 [4],36%
same,melting point,,208 to 209 °C
same,inhibition at 500 µM,xanthine oxidase,21%
same,inhibition at 12.5 µM,aromatase (CYP19),33%
same,DPPH %Inh,[5],8%
same,IC50,[8],90.7 µM
same,IC50,T47-D,87.9 ± 6.34 µM
same,Selectivity Index (SI),T47-D,> 1.5
"COc1c2c(c(NC(=S)Nc3ccccc3)c3ccoc13)C(OC)CC(=O)O2 (stereo not shown) [compound 6, 1-(5,9-Dimethoxy-7-oxo-6,7-dihydro-5H-furo[3,2-g]chromen-4-yl)-3-phenylthiourea]",HL-60 Antiox. %Inh,[2],Toxic
same,IC50,MDA-MB-231 [4],91.9 ± 4.49 µM
same,melting point,,191 to 192 °C
same,inhibition at 500 µM,xanthine oxidase,48%
same,inhibition at 12.5 µM,aromatase (CYP19),18%
same,IC50,[5],52.6 µM
same,XXO %Inh,[8],24%
same,IC50,T47-D,> 100 µM
CC(C)=CCOc1c2ccoc2cc2oc(=O)ccc12 [isoimperatorin],IC50,[11],54.3 µM
O=c1ccc2cc3ccoc3cc2o1 [psoralen],IC50,[11],24.1 µM
O=c1ccc2cc3ccoc3c(O)c2o1 [xanthotoxol],IC50,[11],0.7 µM
